# Experimental data taken from patent US20020009441A1, “Reactively modified therapeutic compounds having an extended lifetime in vivo” (priority 1993, published 2002).
# Assays:
# [1] = tested on: anti-avidin titer; test: Anti-avidin antibody titer by ELISA after i.v. avidin; format: in vivo, rabbit
# Description: II. […] Within about 2 days the titer began to rise rapidly and by 10 days a high anti-avidin titer was observed by ELISA, using avidin coated to microiplates, as evidenced by an OD value of about 600.
# [2] = tested on: plasma proteins; details: rabbit, in vivo
# [3] = tested on: red blood cells; details: rabbit, in vivo
# Experimental: I. Two rabbits were injected with a solution of N-succinimidyl biotin ester (NHS-biotin)(5 or 50 mg in 200 μl or 1 ml of DMSO) i.v. on day 0.
# [4] = blood component in blood; cited from earlier work
compound,measurement,setting,value
"avidin: egg white avidin, heterologous protein and reciprocal binding member of biotin",time at which anti-avidin titer began to rise rapidly,[1]; 250 μg or 1 mg egg white avidin i.v. after biotin conjugate administration,≤ 2 days
same,"anti-avidin titer, OD value (ELISA)","[1]; by 10 days, 250 μg or 1 mg egg white avidin i.v. after biotin conjugate administration",about 600
same,anti-avidin antibody production,"[1]; rabbits not previously given biotin conjugate, before i.v. booster of 50 μg avidin on day 6",substantially no production of antibodies
"O=C1N[C@H]2[C@H](CS[C@H]2CCCCC(=O)ON2C(=O)CCC2=O)N1 [NHS-biotin, N-succinimidyl biotin ester]",duration for which IgG bands could be observed,[2],9 days
same,duration of detection of biotin bound to IgM and IgG,[2],up to 33 days
same,biotinylated red blood cell protein bands at 33 days,[3],no bands could be observed
same,duration for which biotinylated red blood cell proteins could be observed,[3],12 days
"transferrin: blood protein, mobile blood component",Half-life,[4],240 h
